In experiment [1] the target is T1, GABA A receptor α3β3γ2 (hα3) (Homo sapiens, UniProt P18507+P34903).
T1 construct: expressed in transfected cells; host or cells: HEK293, transiently transfected; membranes
Briefly: [3H]flumazenil competition binding, human GABA A α3β3γ2. Particulars: for Ki: HEK293 cells transiently transfected, 1 nM [3H]flumazenil, mean of two determinations, read-out: Ki[nM] hα3. On the procedure: (§1) The affinity of compounds at GABA A receptor subtypes was measured by competition for [^3H]flumazenil (85 Ci/mmol; Roche) binding to HEK293 cells expressing rat (stably transfected) or human (transiently transfected) receptors of composition α1β3γ2, α2β3γ2, α3β3γ2 and α5β3γ2.
(§2) Cell pellets were suspended in Krebs-tris buffer (4.8 mM KCl, 1.2 mM CaCl2, 1.2 mM MgCl2, 120 mM NaCl, 15 mM Tris; pH 7.5; binding assay buffer), homogenized by polytron for ca. 20 sec on ice and centrifuged for 60 min at 4° C. (50000 g; Sorvall, rotor: SM24=20000 rpm). The cell pellets were resuspended in Krebs-tris buffer and homogenized by polytron for ca. 15 sec on ice. Protein was measured (Bradford method, Bio-Rad) and aliquots of 1 mL were prepared and stored at −80° C.
(§3) Radioligand binding assays were carried out in a volume of 200 μL (96-well plates) which contained 100 μL of cell memebranes, [^3H]flumazenil at a concentration of 1 nM for α1, α2, α3 subunits and 0.5 nM for α5 subunits and the test compound in the range of 10^−10−3×10^−6 M. Nonspecific binding was defined by 10^−5 M diazepam and typically represented less than 5% of the total binding. Assays were incubated to equilibrium for 1 hour at 4° C. and harvested onto GF/C uni-filters (Packard) by filtration using a Packard harvester and washing with ice-cold wash buffer (50 mM Tris; pH 7.5). After drying, filter-retained radioactivity was detected by liquid scintillation counting. Ki values were calculated using Excel-Fit (Microsoft) and are the means of two determinations.

Experiment [2] addresses T2, GABA A receptor α2β3γ2 (hα2) (Homo sapiens, UniProt P18507+P47869).
T2 construct: expressed in transfected cells; host or cells: HEK293, transiently transfected; membranes
Briefly: [3H]flumazenil competition binding, human GABA A α2β3γ2. Particulars: for Ki: HEK293 cells transiently transfected, 1 nM [3H]flumazenil, mean of two determinations, read-out: Ki[nM] hα2. On the procedure:
as §1, §2, §3

Experiment [3] addresses T3, GABA A receptor α5β3γ2 (hα5) (Homo sapiens, UniProt P18507+P31644).
T3 construct: expressed in transfected cells; host or cells: HEK293, transiently transfected; membranes
Briefly: [3H]flumazenil competition binding, human GABA A α5β3γ2. Particulars: for Ki: HEK293 cells transiently transfected, 0.5 nM [3H]flumazenil, mean of two determinations, read-out: Ki[nM] hα5. On the procedure:
as §1, §2, §3

Experiment [4] addresses T4, GABA A receptor α1β3γ2 (hα1) (Homo sapiens, UniProt P14867+P18507).
T4 construct: expressed in transfected cells; host or cells: HEK293, transiently transfected; membranes
Briefly: [3H]flumazenil competition binding, human GABA A α1β3γ2. Particulars: for Ki: HEK293 cells transiently transfected, 1 nM [3H]flumazenil, mean of two determinations, read-out: Ki[nM] hα1. How it is done:
as §1, §2, §3

Results on 22 compounds are retold here after US7507728B2, “Halogen substituted imidazol[1,5-A][1,2,4]triazolo[1,5-D][1,4]benzodiazepine derivatives” (priority 2004, dated 2009).

The structures appear in SMILES notation. pKi: −log10 of the molar value. Like-named read-outs stand apart in the source and are kept apart here.

For `COC(=O)c1ccc2c(c1)-c1ncnn1Cc1c(Cl)ncn1-2` [Example 69, 10-Chloro-3-(methoxy-carbonyl)-9H-imidazo[1,5-a][1,2,4]triazolo[1,5-d][1,4]benzodiazepine], the pKi in experiment [1] is 8.12; in experiment [2] it was 7.94. The Ki in experiment [3] is 1 nM; in experiment [4], 7.5 nM.

With `FC(F)c1ccc2c(c1)-c1ncnn1Cc1c(Cl)ncn1-2` [Example 32, 10-Chloro-3-difluoromethyl-9H-imidazo[1,5-a][1,2,4]triazolo[1,5-d][1,4]benzodiazepine], the figures for the pKi in experiment [1] and in experiment [2] were 7.80 and 7.40, respectively. Besides, the figures for the inhibitory constant (Ki) in experiment [3] and in experiment [4] were 1.1 nM and 20.5 nM, respectively.

Turning to `Brc1ncn2c1Cn1ncnc1-c1ccccc1-2` [Example 46, 10-Bromo-9H-imidazo[1,5-a][1,2,4]triazolo[1,5-d][1,4]benzodiazepine], the pKi is 9.22 in experiment [1] and 9.10 in experiment [2]. Besides, the Ki in experiment [3] was 0.2 nM; in experiment [4] it was 2.4 nM.

As for `C=C=Cc1ccc2c(c1)-c1ncnn1Cc1c(Cl)ncn1-2` [Example 70, 10-Chloro-3-(propa-1,2-dienyl)-9H-imidazo[1,5-a][1,2,4]triazolo[1,5-d][1,4]benzodiazepine], the negative logarithm of the Ki (pKi) in experiment [1] was 7.51; in experiment [2], 7.52. Further, the Ki turned out to be 3.2 nM in experiment [3] and 26.9 nM in experiment [4].

As for `Fc1ccc2c(c1)-c1ncnn1Cc1c(Br)ncn1-2` [Example 47, 10-Bromo-3-fluoro-9H-imidazo[1,5-a][1,2,4]triazolo[1,5-d][1,4]benzodiazepine], the values for the pKi in experiment [1] and in experiment [2] were 8.41 and 8.43, respectively. In addition, the Ki in experiment [3] amounted to 0.5 nM; in experiment [4] it was 2.1 nM.

As for `Fc1ccc2c(c1)-c1ncnn1Cc1c(Cl)ncn1-2` [Example 2, 10-Chloro-3-fluoro-9H-imidazo[1,5-a][1,2,4]triazolo[1,5-d][1,4]benzodiazepine], the pKi was 9.11 in experiment [1] and 8.92 in experiment [2]. For the same compound, the results for the inhibition constant (Ki) in experiment [3] and in experiment [4] were 0.3 nM and 0.7 nM, respectively.

In the case of `Clc1ncn2c1Cn1ncnc1-c1cc(C3CC3)ccc1-2` [Example 30, 10-Chloro-3-cyclopropyl-9H-imidazo[1,5-a][1,2,4]triazolo[1,5-d][1,4]benzodiazepine], the figures for the pKi in experiment [1] and in experiment [2] were 7.69 and 7.73, respectively. Moreover, the inhibition constant (Ki) in experiment [3] amounted to 1.2 nM; in experiment [4] it was 28.7 nM.

On to `CNc1ccc2c(c1)-c1ncnn1Cc1c(Cl)ncn1-2` [Example 12, 10-Chloro-3-methylamino-9H-imidazo[1,5-a][1,2,4]triazolo[1,5-d][1,4]benzodiazepine], for which the pKi in experiment [1] was 8.10; in experiment [2] it was 7.80. Also, the figures for the Ki in experiment [3] and in experiment [4] were 1.8 nM and 5.9 nM, respectively.

Take `FC(F)COc1ccc2c(c1)-c1ncnn1Cc1c(Cl)ncn1-2` [Example 8, 10-Chloro-3-(2,2-difluoro-ethoxy)-9H-imidazo[1,5-a][1,2,4]triazolo[1,5-d][1,4]benzodiazepine]: the pKi in experiment [1] is 7.61; in experiment [2], 7.53. Further, the inhibition constant Ki in experiment [3] was 2 nM; in experiment [4] it was 22.1 nM.

As to `FCCOc1ccc2c(c1)-c1ncnn1Cc1c(Cl)ncn1-2` [Example 7, 10-Chloro-3-(2-fluoro-ethoxy)-9H-imidazo[1,5-a][1,2,4]triazolo[1,5-d][1,4]benzodiazepine], the pKi was 7.68 in experiment [1] and 7.60 in experiment [2]. The Ki in experiment [3] was determined as 1.3 nM; in experiment [4] it was 18.5 nM.

Take `Clc1ncn2c1Cn1ncnc1-c1cc(-c3cccnc3)ccc1-2` [Example 57, 10-Chloro-3-(pyridin-3-yl)-9H-imidazo[1,5-a][1,2,4]triazolo[1,5-d][1,4]benzodiazepine]: the pKi was 7.66 in experiment [1] and 7.47 in experiment [2]. The figures for the Ki in experiment [3] and in experiment [4] were 6.7 nM and 9.4 nM, respectively.

For `O=C(Nc1ccc2c(c1)-c1ncnn1Cc1c(Cl)ncn1-2)C1CC1` [Example 50, 3-(Cyclopropanecarbonyl-amino)-10-chloro-9H-imidazo[1,5-a][1,2,4]triazolo[1,5-d][1,4]benzodiazepine], in experiment [3], the Ki came to 15.8 nM.

`C=COc1ccc2c(c1)-c1ncnn1Cc1c(Cl)ncn1-2` [Example 10, 10-Chloro-3-vinyloxy-9H-imidazo[1,5-a][1,2,4]triazolo[1,5-d][1,4]benzodiazepine]: the pKi was 7.94 in experiment [1] and 7.59 in experiment [2]. Moreover, the Ki was 1.2 nM in experiment [3] and 22.4 nM in experiment [4].

For the compound `Clc1ncn2c1Cn1ncnc1-c1cc(Br)ccc1-2` [Example 21, 3-Bromo-10-chloro-9H-imidazo[1,5-a][1,2,4]triazolo[1,5-d][1,4]benzodiazepine], the Ki in experiment [1] amounted to 8.8 nM; in experiment [2] it was 24.1 nM; in experiment [3] it was 1.4 nM; in experiment [4], 33 nM.

On to `COc1ccc2c(c1)-c1ncnn1Cc1c(Cl)ncn1-2` [Example 3, 10-Chloro-3-methoxy-9H-imidazo[1,5-a][1,2,4]triazolo[1,5-d][1,4]benzodiazepine], for which the pKi in experiment [1] was 7.93; in experiment [2], 7.76. The inhibitory constant (Ki) in experiment [3] is 0.8 nM; in experiment [4], 12.2 nM.

For `Clc1ncn2c1Cn1ncnc1-c1ccccc1-2` [Example 1, 10-Chloro-9H-imidazo[1,5-a][1,2,4]triazolo[1,5-d][1,4]benzodiazepine], the pKi was 9.15 in experiment [1] and 8.82 in experiment [2]. In addition, the Ki in experiment [3] is 0.3 nM; in experiment [4], 3.8 nM.

Consider `C=Cc1ccc2c(c1)-c1ncnn1Cc1c(Cl)ncn1-2` [Example 66, 10-Chloro-3-vinyl-9H-imidazo[1,5-a][1,2,4]triazolo[1,5-d][1,4]benzodiazepine], for which the Ki in experiment [1] was 16.8 nM; in experiment [2], 17.5 nM; in experiment [3], 1.4 nM; in experiment [4], 20.6 nM.

On to `CCCCc1ccc2c(c1)-c1ncnn1Cc1c(Cl)ncn1-2` [Example 65, 3-Butyl-10-chloro-9H-imidazo[1,5-a][1,2,4]triazolo[1,5-d][1,4]benzodiazepine], for which the Ki is 115 nM in experiment [1] and 106 nM in experiment [2]. The pKi in experiment [3] is 8.02; in experiment [4], 7.41.

As to `Cc1ccc2c(c1)-c1ncnn1Cc1c(Cl)ncn1-2` [Example 22, 10-Chloro-3-methyl-9H-imidazo[1,5-a][1,2,4]triazolo[1,5-d][1,4]benzodiazepine], the figures for the pKi in experiment [1] and in experiment [2] were 7.67 and 7.39, respectively. Further, the Ki in experiment [3] was 1.8 nM; in experiment [4] it was 19.6 nM.

For `Clc1ccc2c(c1)-c1ncnn1Cc1c(I)ncn1-2` [Example 48, 3-Chloro-10-iodo-9H-imidazo[1,5-a][1,2,4]triazolo[1,5-d][1,4]benzodiazepine], the pKi in experiment [1] is 7.95; in experiment [2], 7.83. In addition, the Ki was determined as 1.4 nM in experiment [3] and 9.2 nM in experiment [4].

As for `CCCc1ccc2c(c1)-c1ncnn1Cc1c(Cl)ncn1-2` [Example 64, 10-Chloro-3-propyl-9H-imidazo[1,5-a][1,2,4]triazolo[1,5-d][1,4]benzodiazepine], the Ki is 187 nM in experiment [1], 136 nM in experiment [2], 7 nM in experiment [3] and 58.8 nM in experiment [4].

In the case of `Clc1ncn2c1Cn1ncnc1-c1cc(NC3CC3)ccc1-2` [Example 72, 10-chloro-3-cyclopropylamino-9H-imidazo[1,5-a][1,2,4]triazolo[1,5-d][1,4]benzodiazepine], the pKi was 7.10 in experiment [1] and 7.03 in experiment [2]. Further, the inhibition constant (Ki) in experiment [3] is 2.2 nM; in experiment [4], 21 nM.
